The values that follow come from patent publication US20250000855A1, “USE OF APOMORPHINE AS THERAPEUTIC AGENT FOR NECROPTOSIS-RELATED DISEASES” (INDUSTRY-ACADEMIC COOPERATION FOUNDATION, YONSEI UNIVERSITY, priority 2021, published 2025).

Experiment [1] concerns THP-1 cells. Briefly: Propidium iodide (PI) uptake / cell membrane integrity in TBZ-induced necroptosis. Type of experiment: cell-based, human. As to the method:
(§1) Cells were pretreated with Z-VAD (invivoGen, tlrl-vad) and a compound for 1 hour, and necroptosis was induced with TNF-α (ATGen, TNF0501) and BV6 (Biovision, B1332-5) for the indicated time. The prepared cells were appropriately treated according to analysis (Z-VAD: carbobenzoxy-valyl-alanyl-aspartyl, TNF-α: tumor necrosis factor-α, BV6: 4,4′-(1,6-hexanediyl)bis[N-methyl-L-alanyl-(2S)-2-cyclohexylglycyl-L-prolyl-β-phenyl-L-phenylalaninamide)
Cells were plated in a flat, transparent-bottomed, black-walled 96-well plate, and subjected to 7-hour chemical treatment and necroptosis induction, and then PI (BD Biosciences, 556463) was added to a final concentration of 50 μg/ml. After incubation for 10 minutes under the original culture conditions, the cells were centrifuged at 400×g for 5 minutes. The emission wavelength at 617 nm following excitation at 530 nm was measured by real-time fluorescence monitoring on a Varioskan Flash 3001 plate reader. Data collection was performed at 37° C. (FIG. 1A).
As a first screening process, to investigate changes in cell membrane integrity by measuring PI uptake (Experimental Method 1-8), a compound in which the PI uptake had been reduced to less than 30% of the signal intensity upon TBZ treatment was selected.
After treating TBZ+APO-treated THP-1 cells with PI for 10 minutes, the PI taken up by the cells was measured on a microplate reader. […]

The subject of experiment [2] is MLKL phosphorylation. The experiment is described as follows: Western blotting for MLKL phosphorylation in TBZ+APO-treated cells. Type of experiment: cell-based, human. The conditions noted are these: TBZ+APO-treated THP-1 cells, FIG. 1B. As to the method: as §1
Cells were treated with a drug candidate and then collected using centrifugation at 4° C. and 1,500×g for 5 minutes. A supernatant was centrifuged again at 4° C. and 1,500×g for 5 minutes to remove remaining debris, concentrated at 4° C. and 14,000×g for 30 minutes using Amicon ultra-0.5 centrifugal filter unit 10K (Millipore, UFC501096), and stored. The collected cells were lysed using 1× radioimmunoprecipitation assay (RIPA) buffer (GenDEPOT, R4100-010) containing a 1× protease inhibitor (GenDEPOT, P3100-001) and a phosphatase inhibitor (Thermo Fisher Scientific, 1862495). Subsequently, the cell lysate was centrifuged at 4° C. and 20,000×g for 30 minutes to remove debris. The extracted protein concentration was measured using a bicinchoninic acid (BCA) protein assay kit (Thermo Fisher Scientific, 23225). […]

With `CN1CCc2cccc3c2[C@H]1Cc1ccc(O)c(O)c1-3` [APO, apomorphine], the concentration for half-maximal inhibition (IC50) in experiment [1] (Homo sapiens, THP-1, concentration-dependent APO treatment, FIG. 1D, read-out: IC50, change in cell membrane integrity) was 5.7 µM. Also, the PI uptake rate result in experiment [1] (THP-1 cells treated with TBZ (TNF-α+BV6+Z-VAD)+APO, PI 10 minutes, FIG. 1A) was “effectively reduced”. In addition, in experiment [2], the MLKL phosphorylation result is given as “did not inhibit”.
